Measured values reported in patent US5665861A, “Cardiodilatin fragment, process for preparing same and use thereof” (HaemoPep Pharma GmbH, priority 1987, dated 1997).

Tested on: membrane preparation from dog kidney cortex
Assay: Inactivation by membrane preparation from dog kidney cortex
Format: in vitro ADME
Text: A unique proteolytic product separated by HPLC on a reverse phase column appears as a single peak which elutes prior to the intact peptide.

position of the inactivating cleavage of the ring structure: between Cys-105 and Phe-106
Compound: CC[C@H](C)[C@@H]1NC(=O)[C@H](CCCNC(=N)N)NC(=O)[C@H](CC(=O)O)NC(=O)[C@H](CCSC)NC(=O)[C@H](CCCNC(=N)N)NC(=O)CNC(=O)CNC(=O)[C@H](Cc2ccccc2)NC(=O)[C@@H](NC(=O)[C@H](CO)NC(=O)[C@H](CO)NC(=O)[C@H](CCCNC(=N)N)NC(=O)[C@H](CCCNC(=N)N)NC(=O)[C@H](CC(C)C)NC(=O)[C@@H](N)CO)CSSC[C@@H](C(=O)N[C@@H](CC(N)=O)C(=O)N[C@@H](CO)C(=O)N[C@@H](Cc2ccccc2)C(=O)N[C@@H](CCCNC(=N)N)C(=O)N[C@@H](Cc2ccc(O)cc2)C(=O)O)NC(=O)CNC(=O)[C@H](CC(C)C)NC(=O)CNC(=O)[C@H](CO)NC(=O)[C@H](CCC(N)=O)NC(=O)[C@H](C)NC(=O)CNC1=O [ANF-(99-126)]
